Source: US20250090689A1, “[…] FOR TREATING EPILEPSY AND NEUROPATHIC PAIN” (Trames Bio, Inc., priority 2022, published 2025)

Biological target: T1, CODA71 receptor (Homo sapiens, UniProt P36544, F159M/H163T/I152M/R155K/V154L/W156N/Y151P)
T1 construct: expressed in transfected cells; host or cells: mouse brain neurons transduced in vivo with AAV carrying expression cassettes #11, #13, #33, #34, #35, #36 (KA focal epilepsy model)
Assay: kainic acid (KA) focal epilepsy mouse model, seizure frequency after repeated dosing of TC-5619
Type: in vivo
Text: Six expression cassettes—#11, #13, #33, #34, #35, and #36 in Table 2—were each packaged into the AAV vector and tested in a kainic acid (KA) focal epilepsy mouse model. The animals were then monitored for seizure frequency following repeated dosing of TC-5619, an activator of the CODA71 receptor transgene encoded by these expression cassettes.

T1 sequence (P36544 with tags, fused parts or gaps Y151P/I152M/V154L/R155K/W156N/F159M/H163T): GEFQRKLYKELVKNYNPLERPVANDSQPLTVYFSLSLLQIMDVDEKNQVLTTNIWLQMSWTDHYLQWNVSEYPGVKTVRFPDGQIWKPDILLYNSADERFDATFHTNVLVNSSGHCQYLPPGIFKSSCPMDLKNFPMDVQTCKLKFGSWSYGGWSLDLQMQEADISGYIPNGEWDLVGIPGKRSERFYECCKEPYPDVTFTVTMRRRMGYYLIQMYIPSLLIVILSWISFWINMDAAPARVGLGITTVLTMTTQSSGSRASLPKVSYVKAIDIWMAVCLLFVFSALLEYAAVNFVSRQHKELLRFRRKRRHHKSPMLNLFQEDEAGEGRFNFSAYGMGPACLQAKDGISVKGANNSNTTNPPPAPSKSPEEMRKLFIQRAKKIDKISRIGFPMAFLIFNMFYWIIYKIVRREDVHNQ

O=C(N[C@@H]1C2CCN(CC2)[C@H]1Cc1cccnc1)c1cc2ccccc2o1 [TC-5619]
seizure burden (higher dose ranges of TC-5619, KA mice with AAV-delivered CODA71 cassettes): significantly reduced seizure burden
seizure frequency (repeated dosing of TC-5619 in KA mice injected with AAV carrying cassettes #11, #13, #33, #34, #35 or #36, FIG. 7): dose-dependent reduction of seizure frequency
residual effect after washout (return to baseline) (repeated single doses of TC-5619 followed by washout): no residual effect
